Reference: patent US5707815A, “Mammalian monocyte chemoattractant protein receptors and assays using them” (Regents of the University of California, priority 1995, dated 1998)
Read-outs that look alike come from different tables or passages of the source.

B1: macrophage inhibitory protein-1 [MIP-1β] (protein, UniProt P13236 24-92, looked up)
C-C motif chemokine 4: APMGSDPPTACCFSYTARKLPRNFVVDYYETSSLCSQPAVVFQTKRSKQVCADPSESWVQEYVYDLELN
notes: C--C chemokine, obtained from R&D

Experiments:
MCP-1RB receptor [1] = type: cell-based, human; settings: for IC50: Table I, read-out: Inhibition of Adenylyl Cyclase IC50 (nM) MCP-1RB; for activation of the MCP-1 receptor in the adenylyl cyclase assay: high concentrations
Description: (§1) To investigate inhibition of adenylyl cyclase activity, HEK-293 cells stably-transfected with the MCP-1RB receptor and the MIP-1α/RANTES receptor were grown until confluent in 24-well tissue culture dishes and labeled overnight with 2 μCi/ml of [^3 H]adenine (25-30 Ci/mmol) (New England Nuclear, Boston, Mass.) in MEM-EBSS supplemented with 10% FCS. The next day, the cells were washed by incubation at room temperature with 0.5 ml of serum-free MEM-EBSS media supplemented with 10 mM HEPES, 1 mg/ml BSA, and 1 mM IBMX (3-isobutyl-1-methylxanthine) for 5 min. […] The incubation was terminated by replacement of the media with 1 ml of ice-cold 5% TCA (trichloroacetic acid), 1 mM cAMP, and 1 mM ATP (Sigma). Following incubation at 4° C. for 30 min, the labeled [^3 H]ATP and [3H]cAMP pools were separated and quantitated by chromatography on Dowex 50W (200-400 mesh, hydrogen form, from Sigma) and neutral alumina columns (also from Sigma), as described in Hung, J. Biol. Chem. 267:20831-34 (1992) and Wong, Nature 351: 63-65 (1991). The 1 ml acid supernatant was loaded onto a 1-ml Dowex 50W column and the ATP pool eluted with 3 ml of H2 O. The Dowex 50W columns were then placed over 1-ml alumina columns, and 10 ml of H2 O was added to the Dowex resin and the eluant allowed to drop directly onto the neutral alumina. The cAMP pool was then eluted directly from the alumina with 5 ml of 0.1M imidazole/0.01mM sodium azide. The [^3 H]ATP and [^3 H]cAMP fractions were counted by liquid scintillation spectroscopy. The cAMP pool for each sample was normalized to its own ATP pool and expressed as a ratio by the equation (cAMP cpms/ATP cpms)×100. In each experiment full dose-response curves were generated and expressed as a percent of the forskolin control.
(§2) Inhibition of MCP-1RB receptor activation by bordetella pertussis toxin was investigated. Pertussis toxin (List Biological Labs, Inc., Campbell, Calif.) was dissolved in 0.01M sodium phosphate, pH 7.0, 0.05M sodium chloride and diluted into normal serum containing media at final concentrations of 0.1 ng/ml to 100 ng/ml, and incubated with cells overnight (14-16 h) at 37° C. The conditions of the Pertussis toxin treatment of the 293 cells were identical for calcium fluorimetric and adenylyl cyclase experiments. In the adenylyl cyclase experiments, the Pertussis toxin was added at the same time as [^3 H]adenine.
(§3) Dose response curves generated in the calcium fluorimetric and adenylyl cyclase inhibition assays were fit by a nonlinear least squares program to the logistic equation:
(§4) Effect=max effect/[1+(EC50 /(agonist)^n)]
(§5) where n and EC50 represent the Hill coefficient and the agonist concentration that elicited a half-maximal response, respectively, and were derived from the fitted curve. Curve fitting was done with the computer program "Prism" (by Graph Pad, San Diego, Calif.). Results represent the mean ±SE. The 95% confidence intervals (CI) of the EC50 and IC50 values, when given, were calculated from the log EC50 and IC50 values, respectively.

MCP-1RB receptor [2] = assay: Intracellular calcium mobilization (indo-1) in stably transfected MCP-1RB/293 cells; type: cell-based, human; settings: for block of stimulation of the cells by MCP-1 / stimulation of calcium signals: MCP-1RB/293 cells; for stimulation of calcium signals: high concentrations
Description: Calcium mobilization in 293 cells was then investigated. Transfected HEK-293 cells were grown until confluent, trypsinized briefly, washed with phosphate buffered saline containing 1 mg/ml BSA (PBS-BSA), and resuspended in serum-free MEM-EBSS supplemented with 1 mg/ml BSA and 10 mM HEPES (pH 7.0) at a density of 2×10^7 cells/ml. The cells were incubated in the dark at 37° C. for 20 min in the presence of 5-10 μg/ml indo-1 AM (Molecular Probes, Inc., Eugene, Oreg.). Nine volumes of PGS-BSA were added, and the cells were incubated for an additional 10 min at 37° C., pelleted by centrifugation, and washed twice with 50 ml of the PBS-BSA solution. Washed, indo-1-loaded cells were then resuspended in Hank's Balanced Salt Solution (1.3 mM Ca^2+) supplemented with 1 mg/ml BSA (HBS-BSA) at a density of approximately 0.5×10^6 cells/ml at room temperature. To measure intracellular calcium ([Ca^2+ ]i), 0.5 ml of the cell suspension was placed in a quartz cuvette in a Hitachi F-2000 fluorescence spectrophotometer. […] Intracellular calcium was measured by excitation at 350 nm and fluorescence emission detection at 490 nm (F1) and 410 nm (F2) wavelengths. The [Ca^2+ ]i was estimated by comparing the 490/410 fluorescence ratio after agonist application (R) to that of calibration ratios measured at the end of each run, according to the equation:
[Ca^2+ ]i =Kd ×[(R--Rmin)/(Rmax
where Rmax and Rmin represent the fluorescence ratio under saturating (1.3 mM Ca^2+) and nominally free (10 mM EGTA, Sigma Chemical Co.) calcium conditions, Kd is the dissociation constant of calcium for indo-1, R is the fluorescence ratio, and Sf2/Sb2 is the fluorescence ratio of free and bound indo-1 dye at 410 nm. See Thomas, AP and Delaville, F (1991) in Cellular Calcium, a Practical Approach, Oxford Univ. Press, pp. 1-54.
To quantirate calcium responses, MCP-1 dose response curves were generated in each experiment and the results were expressed as a percent of the maximum calcium signal (at 300 nM MCP-1) measured in that experiment. The changes in [Ca^2+ ]i levels in response to each concentration of agonist were determined by subtracting the baseline from peak [Ca^2+ ]i levels, which were determined by averaging 5 seconds of data prior to agonist addition and surrounding the peak response, respectively. In experiments done to determine the role of extracellular calcium, 3 mM EGTA was added 60-90 seconds prior to MCP-1. […] All experiments were performed at room temperature.
as §2, §3, §4, §5

MIP-1α/RANTES receptor = assay: Inhibition of adenylyl cyclase (cAMP accumulation) in HEK-293 cells stably transfected with MIP-1α/RANTES receptor; type: cell-based; settings: for activation of the MIP-1α/RANTES receptor: at up to 1 μM
Description: as §1
In similar experiments the MIP-1α/RANTES receptor was stably transfected into 293 cells and also found to mediate potent and dose-dependent inhibition of adenylyl cyclase activity. Unlike the MCP-1RB receptor, however, the MIP-1α/RANTES receptor was activated by multiple chemokines with varying degrees of potency.
as §3, §4, §5

MCP-1RB receptor [3] = assay: Equilibrium binding of 125I-MCP-1 to MCP-1RB expressing HEK-293 cells; design: species or system human; settings: unlabeled chemokine, 500 pM 125I-labeled MCP-1
Description: Equilibrium binding assays were then performed using the method of Ernst, J. Immunol. 152:3541-49 (1994). […] Competition experiments were performed using 500 pM ^125 I-labeled MCP-1 and the concentrations of unlabeled chemokines as indicated in FIG. 7A-B.
Equilibrium binding data were analyzed according to the method of Scatchard using the program "LIGAND" (Biosoft, Ferguson, Mo.) on a Macintosh computer. See Munson, Anal. Biochem. 107: 220-39 (1980).

MCP-1RA = assay: Ca45 efflux assay in Xenopus oocytes injected with MCP-1RA cRNA; type: cell-based, human; settings: ligand at 500 nM
Description: (§6) The calcium efflux assay was performed to confirm expression of functional MCP-1R protein and to determine whether the MCP-1 receptors A and B conferred responsiveness to MCP-1 or other chemokines. In this assay, MCP-1RA and 1RB cRNA was microinjected into Xenopus oocytes and receptor signaling activities measured by detection of agohist-induced calcium mobilization.
(§7) As described in Vu, Cell 64:1057-68(1991), cRNA was prepared by SP6 RNA polymerase transcription from a NotI linearized vector and run on an agarose gel to confirm a single band of the expected size. One day after harvesting, oocytes were injected with 20 ng of cRNA in a total volume of 50 nl per oocyte. After incubation in modified Barth's buffer for 2 days at 16° C., the oocytes were loaded with Ca^45 (50 uCi/ml, Amersham, Arlington Heights, Va.) for 3 hours, washed for one hour, and placed into wells of a 24-well dish in groups of seven, in a volume of 0.5 ml Ca^45 efflux was determined by collecting the media at 10 minute intervals and counting beta emissions in a liquid scintillation counter. […] Uninjected oocytes were used as controls.

MM6 cells = assay: MCP-1 induced calcium flux in MM6 cells (calcium efflux assay); type: cell-based, human; settings: label = chemokine given first, MCP-1 versus RANTES (or MIP-1α)
Description: Because monocytes are difficult to isolate in usable quantity and express less than 2000 high affinity MCP-1 binding sites per cell, a cultured cell line that responded well to MCP-1 had to be identified. Using the calcium effiux assay as described in Vu, Cell 64:1057-68(1991), MCP-1 induced calcium fluxes in various cell lines were measured. […] In contrast, a dose-dependent calcium flux was detected in MM6 cells, with half maximal stimulation at 4nM MCP-1.

MCP-1RB = assay: Ca45 efflux assay in Xenopus oocytes injected with MCP-1RB cRNA; type: cell-based, human; settings: ligand at 500 nM
Description: as §6, §7

[4] = MIP-1α/RANTES receptor, read-out: IC50 for inhibition of adenylyl cyclase
[5] = pretreatment overnight, 0.1 to 100 ng/ml

| Molecule | IC50 (MCP-1RB receptor [1]) [nM] | activation of the MCP-1 receptor in the adenylyl cyclase assay (MCP-1RB receptor [1]) | block of stimulation of the cells by MCP-1 (MCP-1RB receptor [2]) | stimulation of calcium signals (MCP-1RB receptor [2]) | competition for 125I-MCP-1 binding (MCP-1RB receptor [3]) | calcium efflux response elicited (MCP-1RA) | calcium efflux response elicited (MCP-1RB) | other results |
| --- | --- | --- | --- | --- | --- | --- | --- | --- |
| C=C[C@@]1(C)CC(=O)[C@]2(O)[C@@]3(C)[C@@H](O)CCC(C)(C)[C@@H]3[C@H](O)[C@H](OC(C)=O)[C@@]2(C)O1 [Forskolin, forskolin, reference compound] | – | – | – | – | – | – | – | increase of cAMP levels (MCP-1RB receptor [1]; hek-293 cells, 20 min, 10 µM): 16 fold |
| Gro-α: C-X-C chemokine | > 1000 | Virtually no activation | failed to block | failed to stimulate significant calcium signals | – | – | – | IC50 (MIP-1α/RANTES receptor; Table I, read-out: Inhibition of Adenylyl Cyclase IC50 (nM) MIP-1α/RANTES R): > 1000 nM; activation of the MIP-1α/RANTES receptor (MIP-1α/RANTES receptor): did not activate |
| RANTES: C--C chemokine, obtained from R&D | > 1000 | Virtually no activation | failed to block | failed to stimulate significant calcium signals | did not compete for binding | no response | No response | effect of prior exposure to the chemokine on the calcium response to the other chemokine (MM6 cells): could not be ablated; IC50 (MIP-1α/RANTES receptor; [4]): ~0.1 nM |
| interleukin-8 [IL-8] | – | Virtually no activation | failed to block | failed to stimulate significant calcium signals | – | No response | No response | calcium efflux response elicited (MCP-1RA; listed as Il-8): no response; activation of the MIP-1α/RANTES receptor (MIP-1α/RANTES receptor): did not activate |
| macrophage inhibitory protein-1 [MIP-1α] | > 1000 | Virtually no activation | failed to block | failed to stimulate significant calcium signals | did not compete for binding | no response | No response | IC50 (MIP-1α/RANTES receptor; [4]): ~0.1 nM |
| pertussis toxin [reference compound] | – | – | – | – | – | – | – | component resistant to inhibition (MCP-1RB receptor [1]; adenylyl cyclase inhibition, up to 100 ng/ml of PT): ≈ 20%; shift of the MCP-1 IC50 for cAMP accumulation (MCP-1RB receptor [1]; pertussis toxin treatment): without significantly shifting; block of MCP-1 inhibition of adenylyl cyclase (MCP-1RB receptor [1]; [5]): substantially blocked; component resistant to inhibition (MCP-1RB receptor [2]; calcium mobilization, up to 100 ng/ml of PT): ≈ 20%; block of MCP-1-induced mobilization of intracellular calcium (MCP-1RB receptor [2]; [5]): substantially blocked |
| B1 | > 1000 | Virtually no activation | failed to block | failed to stimulate significant calcium signals | did not compete for binding | no response | No response | – |
